Experimental data taken from patent publication US20240101572A1, “DIHYDROOXADIAZINONE COMPOUND AND PHARMACEUTICAL USE THEREOF” (Japan Tobacco Inc., priority 2022, published 2024).
Like-named read-outs stand apart in the source and are kept apart here.

Assays:
full-length human PLD2 = full-length human PLD2 (Homo sapiens (Human), UniProt O14939); assay: Evaluation of human PLD2 enzyme inhibitory activity (Amplex Red / choline oxidase fluorescence); format: biochemical
Procedure, shortened: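 Enzyme was N-terminal FLAG-tagged full-length human PLD2 (1-933), expressed in Expi293F cells and anti-FLAG purified. Compound (5% DMSO final) was incubated with enzyme (6 nmol/L solution) and 1,2-diheptanoyl-PC (6 mmol/L solution) in HEPES pH 7.5, KCl, EGTA, MgCl2, NP-40, BSA buffer for 60 min at room temperature. Choline was detected with Amplex Red/choline oxidase/HRP.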

full-length human PLD1 = full-length human PLD1 (Homo sapiens (Human), UniProt Q13393); assay: Evaluation of human PLD1 enzyme inhibitory activity (Amplex Red / choline oxidase fluorescence); format: biochemical
Chain of full-length human PLD1 (Q13393 other isoform, or with tags, fused parts or gaps): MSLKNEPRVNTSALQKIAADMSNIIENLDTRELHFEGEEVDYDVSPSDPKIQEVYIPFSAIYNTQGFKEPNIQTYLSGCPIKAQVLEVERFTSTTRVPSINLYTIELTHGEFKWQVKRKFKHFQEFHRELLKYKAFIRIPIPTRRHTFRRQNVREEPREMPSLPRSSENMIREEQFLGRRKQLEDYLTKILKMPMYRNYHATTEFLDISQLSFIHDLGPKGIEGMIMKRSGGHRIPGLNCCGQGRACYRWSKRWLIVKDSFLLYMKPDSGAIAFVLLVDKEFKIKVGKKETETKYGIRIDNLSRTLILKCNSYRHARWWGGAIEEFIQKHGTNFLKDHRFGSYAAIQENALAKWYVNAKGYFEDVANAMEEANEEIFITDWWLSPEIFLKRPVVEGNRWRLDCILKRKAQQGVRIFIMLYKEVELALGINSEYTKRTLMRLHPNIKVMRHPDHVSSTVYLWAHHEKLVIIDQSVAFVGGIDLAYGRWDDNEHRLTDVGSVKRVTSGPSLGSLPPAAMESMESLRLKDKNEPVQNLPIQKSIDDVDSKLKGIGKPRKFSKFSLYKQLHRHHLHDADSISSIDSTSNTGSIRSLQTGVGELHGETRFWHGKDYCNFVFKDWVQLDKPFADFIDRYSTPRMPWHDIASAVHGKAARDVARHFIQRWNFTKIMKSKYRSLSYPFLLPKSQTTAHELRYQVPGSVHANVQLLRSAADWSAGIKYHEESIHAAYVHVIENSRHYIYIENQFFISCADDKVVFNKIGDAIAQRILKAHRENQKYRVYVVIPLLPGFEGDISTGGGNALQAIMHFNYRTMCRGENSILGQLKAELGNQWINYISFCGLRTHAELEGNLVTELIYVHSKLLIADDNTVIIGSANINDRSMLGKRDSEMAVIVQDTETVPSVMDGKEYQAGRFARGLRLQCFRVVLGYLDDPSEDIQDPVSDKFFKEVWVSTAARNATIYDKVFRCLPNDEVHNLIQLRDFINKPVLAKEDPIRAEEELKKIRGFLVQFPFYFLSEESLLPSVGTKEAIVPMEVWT
Procedure, shortened: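 N-terminally FLAG-tagged full-length human PLD1 (1-1036), expressed in Expi293F and FLAG-purified, incubated with compound (5% DMSO final) and 1,2-diheptanoyl-sn-glycero-3-phosphocholine for 60 min at room temperature in HEPES pH 7.5 buffer. Released choline detected by Amplex Red/choline oxidase/HRP fluorescence.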

[1] = full-length human PLD2 enzyme, read-out: PLD2 IC50
[2] = full-length human PLD1 enzyme, read-out: PLD1 IC50

Chain of full-length human PLD2 (O14939 whole entry): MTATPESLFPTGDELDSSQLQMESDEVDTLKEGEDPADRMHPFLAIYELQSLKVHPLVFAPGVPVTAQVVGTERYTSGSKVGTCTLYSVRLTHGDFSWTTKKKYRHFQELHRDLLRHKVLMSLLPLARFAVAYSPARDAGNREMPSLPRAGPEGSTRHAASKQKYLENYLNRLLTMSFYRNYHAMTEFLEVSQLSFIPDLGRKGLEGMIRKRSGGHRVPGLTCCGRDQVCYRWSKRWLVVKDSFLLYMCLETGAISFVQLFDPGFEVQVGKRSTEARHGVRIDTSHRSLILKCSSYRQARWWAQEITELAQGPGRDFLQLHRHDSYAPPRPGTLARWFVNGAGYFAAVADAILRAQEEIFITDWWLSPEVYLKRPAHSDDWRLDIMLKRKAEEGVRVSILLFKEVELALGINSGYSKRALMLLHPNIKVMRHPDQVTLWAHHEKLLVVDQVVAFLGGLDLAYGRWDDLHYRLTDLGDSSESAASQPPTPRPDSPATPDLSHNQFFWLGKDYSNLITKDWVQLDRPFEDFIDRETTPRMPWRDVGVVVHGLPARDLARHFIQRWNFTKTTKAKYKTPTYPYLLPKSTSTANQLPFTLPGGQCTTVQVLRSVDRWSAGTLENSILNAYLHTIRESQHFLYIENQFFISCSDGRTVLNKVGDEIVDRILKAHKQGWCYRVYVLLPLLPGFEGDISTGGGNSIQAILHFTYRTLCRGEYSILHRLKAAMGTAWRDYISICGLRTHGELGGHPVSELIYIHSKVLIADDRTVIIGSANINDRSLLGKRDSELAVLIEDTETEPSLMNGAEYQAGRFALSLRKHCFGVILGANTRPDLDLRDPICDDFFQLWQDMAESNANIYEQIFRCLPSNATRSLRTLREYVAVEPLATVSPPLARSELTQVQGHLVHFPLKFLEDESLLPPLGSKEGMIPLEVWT

Row | Compound | IC50 (full-length human PLD2; [1]) | IC50 (full-length human PLD1; [2]) | IC50 (full-length human PLD2; column 2 of continuation tables 2-12 to 2-14, read-out: human PLD2 enzyme inhibitory activity IC50) | IC50 (full-length human PLD1; column 1 of continuation tables 2-12 to 2-14, read-out: human PLD1 enzyme inhibitory activity IC50)
1 | CNC(=O)C(=O)N[C@@H](C)C[C@H]1CC[C@]2(CC1)OC(=O)NN=C2c1cnc(N2CCCCC2)cc1C [Example 166] | < 10 nM | 19 nM | – | –
2 | CNC(=O)C(=O)N[C@@H](C)C[C@H]1CC[C@]2(CC1)OC(=O)NN=C2c1cn(CC(F)F)nc1I [Example 2-058] | 66 nM | 26 nM | – | –
3 | CNC(=O)C(=O)N[C@@H](C)CN1CCC2(CC1)OC(=O)NN=C2c1cn(C)nc1I [Example 2-043] | 152 nM | 33 nM | – | –
4 | CNC(=O)C(=O)N[C@@H](C)C[C@H]1CC[C@]2(CC1)OC(=O)NN=C2c1cc(OCC(F)(F)F)ccc1Br [Example 296] | < 10 nM | 13 nM | – | –
5 | CNC(=O)C(=O)N[C@@H](C)C[C@H]1CC[C@]2(CC1)OC(=O)NN=C2c1cnc(C#N)cc1C [Example 188] | 33 nM | 44 nM | – | –
6 | CNC(=O)C(=O)N[C@@H](C)C[C@H]1CC[C@]2(CC1)OC(=O)NN=C2c1cc(C(C)(C)O)ccc1Br [Example 2-026] | < 10 nM | 12 nM | – | –
7 | CNC(=O)C(=O)N[C@@H](C)C[C@H]1CC[C@]2(CC1)OC(=O)NN=C2c1ccc(OC)cc1Br [Example 58] | < 10 nM | 14 nM | – | –
8 | CNC(=O)C(=O)N[C@@H](C)C[C@H]1CC[C@]2(CC1)OC(=O)NN=C2c1cccc(C#N)c1Br [Example 315] | 24 nM | 25 nM | – | –
9 | CSc1ccc(C2=NNC(=O)OC23CCN(C[C@H](C)NC(=O)c2cc(C)n[nH]2)CC3)c(Cl)c1 [Example 127] | < 10 nM | 25 nM | – | –
10 | COc1cc(C)c(C2=NNC(=O)O[C@]23CC[C@@H](C[C@H](C)NC(=O)N2CCc4ccccc4C2)CC3)cn1 [Example 236] | < 10 nM | 15 nM | – | –
11 | C[C@@H](C[C@H]1CC[C@]2(CC1)OC(=O)NN=C2c1ccc(OC(F)F)cc1Br)NC(=O)c1ccn[nH]1 [Example 143] | 25 nM | 27 nM | – | –
12 | Cc1cc(C(=O)N[C@@H](C)C[C@H]2CC[C@]3(CC2)OC(=O)NN=C3c2cc(OC(F)(F)F)ccc2Br)[nH]n1 [Example 304] | < 10 nM | < 10 nM | – | –
13 | [2H]C([2H])([2H])NC(=O)C(=O)N[C@@H](C)C[C@]1(C#N)CC[C@@]2(CC1)OC(=O)NN=C2c1cccc(F)c1Br [Example 2-152] | – | – | < 10 nM | 16 nM
14 | CNC(=O)C(=O)N[C@@H](C)C[C@H]1CC[C@]2(CC1)OC(=O)NN=C2c1ccc(C(F)(F)F)cc1C [Example 181] | < 10 nM | 13 nM | – | –
15 | Cc1cc(Br)ccc1C1=NNC(=O)O[C@]12CC[C@@H](C[C@H](C)NC(=O)NC1CC1)CC2 [Example 210] | 1090 nM | 296 nM | – | –
16 | CNC(=O)C(=O)N[C@@H](C)C[C@H]1CC[C@]2(CC1)OC(=O)NN=C2c1ccc(OCC(C)(C)O)cc1Br [Example 130] | < 10 nM | 18 nM | – | –
17 | COc1cc(C)c(C2=NNC(=O)O[C@]23CC[C@@H](C[C@H](C)NC(=O)N2CCc4nocc4C2)CC3)cn1 [Example 260] | < 10 nM | 31 nM | – | –
18 | CNC(=O)C(=O)N[C@@H](C)C(C#N)N1CCC2(CC1)OC(=O)NN=C2c1ccc(F)cc1Br (mixture of isomers) [Example 2-010] | 1260 nM | 1010 nM | – | –
19 | Cc1cc(C(=O)N[C@@H](C)CN2CCC3(CC2)OC(=O)NN=C3c2ccc(F)cc2Cl)no1 [Example 98] | 78 nM | 57 nM | – | –
20 | Cc1cc(C(=O)N[C@@H](C)C[C@H]2CC[C@]3(CC2)OC(=O)NN=C3c2cccc(Br)c2)[nH]n1 [Example 25] | 101 nM | 108 nM | – | –
21 | CNC(=O)C(=O)N[C@@H](C)CN1CCC2(CC1)OC(=O)NN=C2c1c(F)cccc1Br [Example 2-018] | < 10 nM | 22 nM | – | –
22 | CNC(=O)C(=O)N[C@@H](C)C[C@H]1CC[C@]2(CC1)OC(=O)NN=C2c1cnc(N2C[C@H]3C[C@@H]2CO3)cc1Cl [Example 243] | < 10 nM | 24 nM | – | –
23 | C[C@@H](C[C@H]1CC[C@]2(CC1)OC(=O)NN=C2c1cccc(C#N)c1Br)NC(=O)c1cnn(C)c1 [Example 318] | 41 nM | 37 nM | – | –
24 | CNC(=O)C(=O)N[C@@H](C)C[C@H]1CC[C@]2(CC1)OC(=O)NN=C2c1ccc(F)cc1C(C)C [Example 133] | 31 nM | 29 nM | – | –
25 | C[C@@H](CN1CCC2(CC1)OC(=O)NN=C2c1ccc(C#N)cc1Br)NC(=O)c1cn(C)cn1 [Example 2-060] | 11 nM | 27 nM | – | –
26 | C[C@@H](CN1CCC2(CC1)OC(=O)NN=C2c1cc(C#N)ccc1Br)NC(=O)c1ccccc1C(F)(F)F [Example 2-029] | 8410 nM | 1510 nM | – | –

Row | Compound | IC50 (full-length human PLD2; [1]) | IC50 (full-length human PLD1; [2]) | IC50 (full-length human PLD2; column 2 of continuation tables 2-12 to 2-14, read-out: human PLD2 enzyme inhibitory activity IC50) | IC50 (full-length human PLD1; column 1 of continuation tables 2-12 to 2-14, read-out: human PLD1 enzyme inhibitory activity IC50)
27 | C[C@@H](C[C@H]1CC[C@]2(CC1)OC(=O)NN=C2c1ccc(F)cc1Br)NC(=O)C1(F)CC1 [Example 35] | 367 nM | 257 nM | – | –
28 | CNC(=O)C(=O)N[C@@H](C)C[C@H]1CC[C@]2(CC1)OC(=O)NN=C2c1cnc(N2CCC2)cc1C [Example 159] | < 10 nM | 28 nM | – | –
29 | CNC(=O)C(=O)N[C@@H](C)C[C@H]1CC[C@]2(CC1)OC(=O)NN=C2c1cnc(C(N)=O)cc1C [Example 187] | 455 nM | 222 nM | – | –
30 | COc1cc(C)c(C2=NNC(=O)O[C@]23CC[C@@H](C[C@H](C)NC(=O)OCc2ccccc2)CC3)cn1 [Example 262] | < 10 nM | 15 nM | – | –
31 | Cc1cc(C(=O)N[C@@H](C)CN2CCC3(CC2)OC(=O)NN=C3c2ccc(C#N)cc2Br)[nH]n1 [Example 207] | < 10 nM | 25 nM | – | –
32 | CNC(=O)C(=O)N[C@@H](C)C[C@]1(C#N)CC[C@@]2(CC1)OC(=O)NN=C2c1cc(OC(F)F)ccc1Br [Example 2-055] | < 10 nM | 11 nM | – | –
33 | CNC(=O)C(=O)N[C@@H](C)C[C@H]1CC[C@]2(CC1)OC(=O)NN=C2c1cc(C(=O)N2CCC(F)(F)C2)ccc1Br [Example 2-056] | < 10 nM | 17 nM | – | –
34 | COc1cc(C)c(C2=NNC(=O)O[C@]23CC[C@@H](C[C@H](C)NC(=O)N2CCn4nncc4C2)CC3)cn1 [Example 235] | 13 nM | 35 nM | – | –
35 | CNC(=O)C(=O)N[C@@H](C)C[C@H]1CC[C@]2(CC1)OC(=O)NN=C2c1ccc(S(C)(=O)=O)cc1 [Example 10] | 106 nM | 92 nM | – | –
36 | CNC(=O)C(=O)N[C@@H](C)CN1CCC2(CC1)OC(=O)NN=C2c1cccn2nccc12 [Example 2-039] | 264 nM | 153 nM | – | –
37 | Cc1cc(C(=O)NC(C)CN2CCC3(CC2)OC(=O)NN=C3c2cccc(F)c2Br)[nH]n1 (centres unmarked) [Example 2-031] | < 10 nM | 19 nM | – | –
38 | Cc1cc(C(=O)N[C@@H](C)CN2C[C@H]3CC[C@@H](C2)[C@@]32OC(=O)NN=C2c2ccc(F)cc2Cl)[nH]n1 [Example 197] | < 10 nM | 26 nM | – | –
39 | CC(=O)N[C@@H](C)C[C@H]1CC[C@]2(CC1)OC(=O)NN=C2c1ccc(F)cc1Br [Example 11] | 394 nM | 228 nM | – | –
40 | CNC(=O)C(=O)N[C@@H](C)C[C@H]1CC[C@]2(CC1)OC(=O)NN=C2c1cc(Br)ccc1C [Example 212] | < 10 nM | < 10 nM | – | –
41 | Cc1cc(C(=O)N[C@H](C)CN2CCC3(CC2)OC(=O)NN=C3c2ccc(F)cc2Br)[nH]n1 [Example 2-012] | 245 nM | 2040 nM | – | –
42 | C[C@@H](C[C@H]1CC[C@]2(CC1)OC(=O)NN=C2c1cc(C#N)ccc1Br)NC(=O)c1ccn(C)n1 [Example 2-070] | 38 nM | 68 nM | – | –
43 | C[C@H](NC(=O)c1cnn(C)c1)[C@H](C)[C@H]1CC[C@]2(CC1)OC(=O)NN=C2c1cc(C#N)ccc1Br [Example 339] | 10 nM | 39 nM | – | –
44 | Cc1cnc(C(=O)N[C@@H](C)C[C@H]2CC[C@]3(CC2)OC(=O)NN=C3c2ccc(F)cc2Br)cn1 [Example 253] | 324 nM | 252 nM | – | –
45 | CNC(=O)C(=O)N[C@@H](C)C[C@H]1CC[C@]2(CC1)OC(=O)NN=C2c1cnc(N2CCOCC2)cc1C [Example 164] | < 10 nM | 38 nM | – | –
46 | C[C@@H](C[C@H]1CC[C@]2(CC1)OC(=O)NN=C2c1cc(Cl)ccc1Cl)NC(=O)c1cn2ccccc2n1 [Example 324] | 22 nM | 20 nM | – | –
47 | CNC(=O)C(=O)N[C@@H](C)CN1CCC2(CC1)OC(=O)NN=C2c1ccc(F)cc1Cl [Example 90] | 18 nM | 45 nM | – | –
48 | Cc1cc(C(=O)N[C@@H](C)C[C@]2(O)CC[C@]3(CC2)OC(=O)NN=C3c2ccc(F)cc2Br)[nH]n1 [Example 320, N—((S)-1-(cis-5-(2-bromo-4-fluorophenyl)-9-hydroxy-2-oxo-1-oxa-3,4-diazaspiro[5.5]undec-4-en-9-yl)propan-2-yl)-3-methyl-1H-pyrazole-5-carboxamide] | 1580 nM | 3880 nM | – | –
49 | C[C@@H](C[C@H]1CC[C@]2(CC1)OC(=O)NN=C2c1cc(OCC(F)(F)F)ccc1Br)NC(=O)c1cnn(C)c1 [Example 305] | < 10 nM | 15 nM | – | –
50 | Cc1cc(F)ccc1C1=NNC(=O)O[C@]12CC[C@@H](C[C@H](C)NC(=O)c1ccc(Cl)cn1)CC2 [Example 89] | 37 nM | 38 nM | – | –
51 | C[C@@H](CN1CCC2(CC1)OC(=O)NN=C2c1ccc(C#N)cc1Br)NC(=O)C(=O)NC1CC1 [Example 2-064] | 11 nM | 27 nM | – | –
52 | CNC(=O)C(=O)N[C@@H](C)C[C@H]1CC[C@]2(CC1)OC(=O)NN=C2c1cnc(C2CC2)cc1Cl [Example 265] | < 10 nM | 13 nM | – | –
